ChEMBL document CHEMBL1157939, “Bromophycolides C-I from the Fijian red alga Callophycus serratus” (J Nat Prod, 2006)
pIC50: −log10 of the molar value.

What was measured:
[1] = test system: Candida albicans; assay: Antifungal activity against amphotericin B-resistant Candida albicans after 12 to 15 hrs by alamar blue assay; format: functional, organism-based
[2] = test system: DU-4475; assay: Antineoplastic activity against human DU4475 cells after 72 hrs by MTS reduction assay; format: functional, cell-based; conditions: DU-4475, 72 h

SMILES	pIC50 [1]	pIC50 [2]
C=C1CC[C@H](Br)[C@@]2(C)CC[C@@H]3O[C@@]3(C)CC[C@@H](C(C)(C)O)OC(=O)c3ccc(O)c(c3)C[C@H]12 [BROMOPHYCOLIDE F]	3.62	–
C=C1CC[C@H](Br)[C@@]2(C)CC[C@@H](Br)[C@@](C)(O)CC[C@@H](Br)C(C)(C)OC(=O)c3ccc(O)c(c3)C[C@H]12 [BROMOPHYCOLIDE H]	–	5.41
C=C1CC[C@H](Br)[C@@]2(C)CC[C@@H](Br)[C@@](C)(O)CC[C@H](O)C(C)(C)OC(=O)c3ccc(O)c(c3)C[C@H]12 [BROMOPHYCOLIDE I]	3.68	–
